Experiments:
human TLR7 = molecular target: T1, human TLR7 (Homo sapiens, UniProt Q9NYK1); experiment: TLR7 reporter gene assay (HEK-Blue-hTLR7, NFkB/AP-1 inducible SEAP); type: cell-based; settings: HEK-Blue-hTLR7; read-out: EC50 in the TLR7 reporter gene assay
T1 construct: host or cells: HEK-Blue-hTLR7
T1 sequence (Q9NYK1 27-1049): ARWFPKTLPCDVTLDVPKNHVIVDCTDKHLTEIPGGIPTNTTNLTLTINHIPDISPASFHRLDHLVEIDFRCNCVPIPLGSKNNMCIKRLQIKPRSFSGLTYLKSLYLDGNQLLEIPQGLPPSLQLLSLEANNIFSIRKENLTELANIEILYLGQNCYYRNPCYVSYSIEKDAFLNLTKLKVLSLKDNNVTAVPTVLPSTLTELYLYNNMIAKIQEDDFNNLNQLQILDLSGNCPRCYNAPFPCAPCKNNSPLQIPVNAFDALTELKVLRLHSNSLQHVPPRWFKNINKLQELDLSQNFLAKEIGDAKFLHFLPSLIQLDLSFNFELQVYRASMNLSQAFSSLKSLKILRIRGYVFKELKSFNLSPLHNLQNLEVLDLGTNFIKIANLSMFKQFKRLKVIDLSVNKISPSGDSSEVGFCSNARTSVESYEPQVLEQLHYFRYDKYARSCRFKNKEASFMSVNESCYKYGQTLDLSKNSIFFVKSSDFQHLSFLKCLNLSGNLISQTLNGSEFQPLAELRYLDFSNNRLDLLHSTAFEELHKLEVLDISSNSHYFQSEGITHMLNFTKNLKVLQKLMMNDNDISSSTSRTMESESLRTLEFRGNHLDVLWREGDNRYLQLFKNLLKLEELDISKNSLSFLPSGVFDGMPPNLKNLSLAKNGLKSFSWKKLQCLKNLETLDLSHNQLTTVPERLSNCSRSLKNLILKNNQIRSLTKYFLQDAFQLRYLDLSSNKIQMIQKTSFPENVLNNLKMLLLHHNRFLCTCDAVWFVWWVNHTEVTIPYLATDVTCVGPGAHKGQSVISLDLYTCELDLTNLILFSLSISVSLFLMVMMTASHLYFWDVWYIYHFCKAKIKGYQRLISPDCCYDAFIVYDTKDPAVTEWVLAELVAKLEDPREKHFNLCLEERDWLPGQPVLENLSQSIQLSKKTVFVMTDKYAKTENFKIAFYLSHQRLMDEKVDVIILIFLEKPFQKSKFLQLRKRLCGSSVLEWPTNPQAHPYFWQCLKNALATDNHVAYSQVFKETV
Procedure: (§1) 2) TLR Stimulation Assay:
(§2) Compounds are tested for stimulation of human TLR7 and TLR8, respectively, via reporter gene expression analyzed in a cell line stably transfected with human TLR7 and TLR8, respectively, and coexpressing an NFkB/AP-1 inducible SEAP reporter gene. Stimulation with a TLR ligand leads to NFkB/AP-1 activation and upregulation and secretion of SEAP, which can be measured in the supernatant with QuantiBlue™ detection system (InvivoGen).
Cell lines used were either HEK-Blue-hTLR7 (InvivoGen #hkb-htlr7) or HEK-Blue-hTLR8 (InvivoGen #hkb-htlr8). Cells were cultured following manufacturer's instructions.
Assay: • prepare cell suspensions of each cell line with Nv=0.11×10^6 cells/ml in medium (DMEM 4.5 g/l Glucose, 2-4 mM L-glutamine+10% FBS) without antibiotics (Nv=number of living cells) • add 180 μl of the suspensions per well of a 96 well flat bottom cell culture plates (coster, #3506) • incubate the plates overnight at 37° C. and 5% CO2 • prepare samples and controls as solutions in DMSO: R848, CL075 (TLR 7/8 agonist by InvivoGen) and Guardiquimod each to a final concentration of 10 μM, ODN2006 (InvivoGen) and ODN2216 (InvivoGen) each to a final concentration 2 μM; • compounds of the invention are applied in dilution series to final concentrations of 30, 10, 3, 1, etc. μM • add 20 μl diluted compounds and controls (see above) to the wells • incubate plates for 20-24 h at 37° C. and 5% CO2 • prepare QuantiBlue™ (InvivoGen #10H19-MM) solution, following manufacturer's instructions: solubilize the powder of one pouch in 100 ml MilliQ grade water, heat at 37° C. in a water bath for about 30 min, filter the solution with a paper filter • add 100 μl prepared QuantiBlue™ solution in each well of a 96 well plate with flat bottom • add […] cell culture supernatant from the induced cells per well • incubate plates for 1 to 1.5 h at 37° C. (until an intense blue color has developed) • read OD at 620 nm with a plate reader • calculate EC50 from data points

human TLR8 = molecular target: T2, human TLR8 (Homo sapiens, UniProt Q9NR97); experiment: TLR8 reporter gene assay (HEK-Blue-hTLR8, NFkB/AP-1 inducible SEAP); type: cell-based
T2 construct: host or cells: HEK-Blue-hTLR8
T2 sequence (Q9NR97 27-1041): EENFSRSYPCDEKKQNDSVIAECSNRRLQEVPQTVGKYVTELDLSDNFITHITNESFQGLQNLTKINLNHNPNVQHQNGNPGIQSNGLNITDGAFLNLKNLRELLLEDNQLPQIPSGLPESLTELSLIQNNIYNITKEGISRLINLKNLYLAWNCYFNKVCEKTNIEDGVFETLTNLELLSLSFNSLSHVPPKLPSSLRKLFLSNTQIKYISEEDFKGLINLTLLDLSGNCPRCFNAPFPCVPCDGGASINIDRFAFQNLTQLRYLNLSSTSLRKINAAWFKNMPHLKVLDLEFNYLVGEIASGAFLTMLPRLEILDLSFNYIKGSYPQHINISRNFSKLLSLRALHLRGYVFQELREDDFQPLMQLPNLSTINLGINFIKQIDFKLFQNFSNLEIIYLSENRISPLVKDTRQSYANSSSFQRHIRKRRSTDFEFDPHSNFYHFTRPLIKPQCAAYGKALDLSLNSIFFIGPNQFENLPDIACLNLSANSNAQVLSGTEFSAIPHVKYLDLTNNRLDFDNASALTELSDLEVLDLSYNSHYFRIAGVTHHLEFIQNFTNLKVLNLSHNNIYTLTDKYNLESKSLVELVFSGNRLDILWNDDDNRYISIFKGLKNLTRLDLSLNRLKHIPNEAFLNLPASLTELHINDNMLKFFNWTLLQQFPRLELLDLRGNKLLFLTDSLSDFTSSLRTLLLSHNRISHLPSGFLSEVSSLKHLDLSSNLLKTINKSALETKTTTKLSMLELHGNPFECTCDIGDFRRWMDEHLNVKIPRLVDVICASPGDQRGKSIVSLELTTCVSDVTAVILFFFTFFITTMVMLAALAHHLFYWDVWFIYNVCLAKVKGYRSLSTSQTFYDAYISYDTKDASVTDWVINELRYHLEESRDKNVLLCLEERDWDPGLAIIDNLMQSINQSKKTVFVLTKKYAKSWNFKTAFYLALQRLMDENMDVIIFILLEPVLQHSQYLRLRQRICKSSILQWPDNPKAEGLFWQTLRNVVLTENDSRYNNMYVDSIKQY
Procedure: as §1, §2
Cell lines used were either HEK-Blue-hTLR7 (InvivoGen #hkb-htlr7) or HEK-Blue-hTLR8 (InvivoGen #hkb-htlr8). Cells were cultured following manufacturer's instructions. […]

EC50 (human TLR7): 0.044 µM
activity towards TLR8 in the TLR8 reporter gene assay (human TLR8): no activity
Compound: CCc1nc2c(N)nc3ccccc3c2n1CCCCN(C(C)=O)C1CCOCC1 [Example 1, N-(4-(4-Amino-2-ethyl-1H-imidazo[4,5-c]quinolin-1-yl)butyl)-N-(tetrahydro-2H-pyran-4-yl)acetamide]

From patent publication US12054485B2, “Substituted imidazoquinolines” (BIONTECH SE, priority 2017, dated 2024)
